# Measured values from patent publication US10653672B2, “Myogenesis promotor, muscle atrophy inhibitor, medical composition and TAZ activator” (National University Corporation Tokyo Medical and Dental …, priority 2014, dated 2020).
# Values joined by “and” are separate entries in the source; they are usually repeats but may differ in a detail not shown here. Identical values can stand only once.
# How the values were obtained:
# TAZ [1] = experiment: Localization of TAZ in the cell by cell fraction; assay type: cell-based, mouse; settings: C2C12 cells, 24 hours under differentiation condition
# Experimental: Phosphorylation of TAZ and its localization in the cell are important factors in controlling the activity of TAZ. The localization of TAZ in the cell was examined by performing cell fraction of C2C12 cells after being cultured for 24 hours under differentiation condition in a medium added with IBS008738 or DMSO.
# SMAD reporter = experiment: Luciferase reporter assay, SMAD reporter; assay type: cell-based; settings: Mus musculus, C2C12, 24 h, C2C12 cells expressing reporter and TAZ WT, differentiation medium 24 hours
# Experimental: (§1) The effect and its degree on the activity of a reporter, derived from a transcription factor that interacts with TAZ in C2C12 cells, were evaluated. Specifically, C2C12 cells expressing luciferase reporters corresponding to MyoD, TEAD, SMAD and Pax3 and C2C12 cells expressing these luciferase reporters and TAZ were cultured in a culture medium added with IBS008738 or DMSO at a concentration of 10 μM, respectively. […] The line and the error bar indicate the average value and the standard error, *p<0.05, **p<0.01, ns refers to not significant.
# (§2) Transfection of the luciferase reporters was performed to the C2C12 cells after being plated at 12-well plates (1×10^5 cells/well) and cultured overnight. As the luciferase reporters, pGL3 Myo-184- (MyoD-), 8×GT-IIC-δ51LucII- (TEAD-), 9×CAGA-MLP-(SMAD-), and p(PRS-1/-4)3- (Pax3-) were transfected to the cells alone or with TAZ. These reporter vectors were from Keiji Miyazawa (Yamanashi University), Hiroshi Sasaki (Kumamoto University) and Hiroki Kurihara (The University of Tokyo).
# (§3) Immediately after the transfection, DMSO or IBS008738 was added at a concentration of 10 μM, respectively. After growing the cells to confluence, the cells were transferred to a differentiation medium with DMSO or IBS008738, and cultured for 24 hours before the luciferase assay.
# HCT116 cells = experiment: Immunoblotting of EMT markers in HCT116 cells; assay type: cell-based, human
# Experimental: (§4) (1) A431 cells, (epidermoid carcinoma), A549 cells (adenocarcinomic human alveolar basal epithelial cell) and HCT116 cells (human colon cancer) were treated with IBS008738 or DMSO, respectively, and evaluated by immunoblotting.
# (§5) HEK293, A431, A549, HCT116, MCF7 and SW480 cells were cultured in Dulbecco's Modified Eagle Medium (DMEM) containing 10% fetal bovine serum (FBS), 10 mM HEPES-NaOH at pH 7.4, 100 U/ml penicillin and 100 mg/I streptomycin under 5% CO2 at 37° C.
# A549 cells = experiment: Immunoblotting of EMT markers in A549 cells; assay type: cell-based, human
# Experimental: as §4, §5
# Pax3 reporter = experiment: Luciferase reporter assay, Pax3 reporter; assay type: cell-based; settings: Mus musculus, C2C12, 24 h, C2C12 cells expressing reporter and TAZ WT, differentiation medium 24 hours
# Experimental: as §1, §2, §3
# TEAD reporter = experiment: Luciferase reporter assay, TEAD reporter; assay type: cell-based; settings: Mus musculus, C2C12, 24 h, C2C12 cells expressing reporter and TAZ WT, differentiation medium 24 hours
# Experimental: as §1, §2, §3
# [2] = tested on: connective tissue growth factor (CTGF); experiment: Quantitative real-time PCR, CTGF; assay type: cell-based, mouse; settings: C2C12 cells, 10 μM; for Normarized mRNA abundance, CTGF: listed as IBS008738
# Experimental: (§6) (1) Quantitative real-time PCR was performed with C2C12 cells immediately before the induction of muscle formation (0 h), and after culturing under differentiation condition in a culture medium added with IBS008738 or DMSO at a concentration of 10 μM for 24 hours (24 h) and 72 hours (72 h), respectively. […] The line and error bar indicate the average value and the standard error, **p<0.05, and ns refers to not significant.
# (2) Evaluation was also performed under the same condition on the connective tissue growth factor (CTGF) and cyclin D1, as TAZ targets in epidermal cells.
# (§7) The quantitative real-time PCR was performed with SYBER Green (Roche) and ABI7500 Realtime PCR system (Applied Biosystems).
# C2C12 cells = experiment: Proliferation of C2C12 cells by MTT method; assay type: cell-based, mouse; settings: for Relative cell proliferation: growth condition, day 1 as 1
# Experimental: In order to examine whether IBS008738 as an effect on the proliferation of cells, C2C12 cells were cultured under growth condition for 5 days in a medium added with IBS008738 at 0 μM (not added), 0.1 μM, 1 μM and 10 μM, respectively, and the number of the cells was counted each day by MTT (3-(4, 5-dimethylthiazol-2-yl)-2, 5-diphenyl tetrazolium bromide) method. The counting was performed three times, and the obtained numbers were relativized with the number of day 1 as 1.
# TAZ [3] = experiment: Quantitative real-time PCR, TAZ; assay type: cell-based, mouse; settings: C2C12 cells, 10 μM; for Normarized mRNA abundance, TAZ: listed as IBS008738
# Experimental: as §6, §7
# [4] = biological target: T1, interaction of TAZ and MyoD (Homo sapiens, UniProt Q9GZV5); experiment: Immunoprecipitation of FLAG-TAZ and HA-MyoD in HEK 293 cells; assay type: cell-based; settings: HEK 293 expressing FLAG-TAZ and HA-MyoD
# T1 construct: expressed in transfected cells; host or cells: HEK 293 (human embryonic kidney cells)
# Experimental: (2) For analyzing the effects of IBS008738 on the interaction of TAZ and MyoD, immunoprecipitation was performed on human embryonic kidney cells (HEK 293) expressing FLAG-TAZ and HA-MyoD, with anti-FLAF M2 beads.
# T1 sequence (Q9GZV5 whole entry): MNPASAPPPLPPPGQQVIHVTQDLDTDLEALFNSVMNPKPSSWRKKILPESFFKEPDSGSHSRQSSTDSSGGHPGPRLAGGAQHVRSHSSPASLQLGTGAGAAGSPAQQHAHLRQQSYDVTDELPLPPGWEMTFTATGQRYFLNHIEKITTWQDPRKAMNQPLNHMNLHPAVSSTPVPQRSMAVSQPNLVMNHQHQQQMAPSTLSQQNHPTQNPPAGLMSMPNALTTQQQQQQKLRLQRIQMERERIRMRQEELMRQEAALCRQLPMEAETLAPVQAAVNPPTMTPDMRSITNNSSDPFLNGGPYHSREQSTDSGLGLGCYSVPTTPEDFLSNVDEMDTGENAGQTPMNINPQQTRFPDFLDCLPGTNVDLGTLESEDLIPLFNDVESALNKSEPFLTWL
structure (smiles),measurement,setting,value
Cc1ccc(-n2cnc(/N=C/N3CCOCC3)c2C(=O)c2ccccc2)cc1 [exemplary compound 1],effect on the localization of TAZ in the cell,TAZ [1],no effect
same,fold induction at 10 µM,SMAD reporter,2.09
same,"EMT markers (fibronectin, E-cadherin, N-cadherin and vimentin) compared with DMSO",HCT116 cells,no significant difference
same,"EMT markers (fibronectin, E-cadherin, N-cadherin and vimentin) compared with DMSO",A549 cells,no significant difference
same,fold induction at 10 µM,Pax3 reporter,0.8
same,fold induction at 10 µM,TEAD reporter,8.41
same,gene transcription of CTGF compared with DMSO,[2]; 24 h and 72 h,no significant difference
same,"Normarized mRNA abundance, CTGF",[2]; differentiation condition 24 h,0.32 and 0.30 and 0.25
same,"Normarized mRNA abundance, CTGF",[2]; differentiation condition 72 h,1.76 and 2.01 and 2.04
same,effect on the proliferation of C2C12 cells,"C2C12 cells; 0.1 μM, 1 μM and 10 μM, 5 days",does not have an effect
same,Relative cell proliferation,"C2C12 cells; 0.1 μM, 24 h",1.00
same,Relative cell proliferation,"C2C12 cells; 0.1 μM, 48 h, listed as IBS008738",2.09 and 2.06 and 2.18
same,Relative cell proliferation,"C2C12 cells; 0.1 μM, 72 h, listed as IBS008738",5.37 and 4.74 and 4.59
same,Relative cell proliferation,"C2C12 cells; 0.1 μM, 120 h, listed as IBS008738",9.01 and 8.76 and 8.78
same,Relative cell proliferation,"C2C12 cells; 1 μM, 24 h",1.00
same,Relative cell proliferation,"C2C12 cells; 1 μM, 48 h, listed as IBS008738",2.41 and 2.05 and 2.07
same,Relative cell proliferation,"C2C12 cells; 1 μM, 72 h, listed as IBS008738",5.11 and 4.54 and 4.46
same,Relative cell proliferation,"C2C12 cells; 1 μM, 120 h, listed as IBS008738",9.13 and 8.80 and 8.79
same,Relative cell proliferation,"C2C12 cells; 10 μM, 24 h",1.00
same,Relative cell proliferation,"C2C12 cells; 10 μM, 48 h, listed as IBS008738",2.09 and 2.07
same,Relative cell proliferation,"C2C12 cells; 10 μM, 72 h, listed as IBS008738",4.70 and 4.90 and 4.92
same,Relative cell proliferation,"C2C12 cells; 10 μM, 120 h, listed as IBS008738",8.63 and 8.99 and 8.56
same,expression of TAZ (gene transcription) compared with DMSO,TAZ [3]; 24 h and 72 h,did not change
same,"Normarized mRNA abundance, TAZ",TAZ [3]; differentiation condition 24 h,0.88 and 0.94
same,"Normarized mRNA abundance, TAZ",TAZ [3]; differentiation condition 72 h,1.44 and 1.36 and 1.41
same,interaction of TAZ and MyoD compared with DMSO,[4],slightly promoted
